In patent US20240190880A1 (THE REGENTS OF THE UNIVERSITY OF MICHIGAN, priority 2021, published 2024):

molecular target: T1, ER (Homo sapiens, UniProt P03372); assay: ER degradation activity, in-cell western blot analysis in T47D cells; type: cell-based; details: 16 hours, Table A does not say which cell line (T47D or MCF7), read-out: Potency (DC50)
T1 construct: host or cells: T47D and MCF7 human breast cancer cells
T1 sequence (P03372 1-595): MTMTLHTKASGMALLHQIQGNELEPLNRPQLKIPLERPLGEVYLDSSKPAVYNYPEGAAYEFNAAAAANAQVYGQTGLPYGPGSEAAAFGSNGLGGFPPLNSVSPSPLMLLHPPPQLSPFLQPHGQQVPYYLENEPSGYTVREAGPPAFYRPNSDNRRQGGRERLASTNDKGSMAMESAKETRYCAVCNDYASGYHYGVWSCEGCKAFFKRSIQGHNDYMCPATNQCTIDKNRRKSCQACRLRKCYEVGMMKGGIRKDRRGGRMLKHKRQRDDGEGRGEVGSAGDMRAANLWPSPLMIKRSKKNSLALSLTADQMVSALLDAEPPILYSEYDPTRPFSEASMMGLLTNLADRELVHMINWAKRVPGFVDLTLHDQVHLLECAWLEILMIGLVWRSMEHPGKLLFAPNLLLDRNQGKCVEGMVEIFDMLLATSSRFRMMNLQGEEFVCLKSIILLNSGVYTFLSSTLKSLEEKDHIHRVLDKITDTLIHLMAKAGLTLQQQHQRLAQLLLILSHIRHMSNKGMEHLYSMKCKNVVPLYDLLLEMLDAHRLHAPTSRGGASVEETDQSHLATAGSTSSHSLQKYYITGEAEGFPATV
Procedure, shortened: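 Human T47D cells (DMEM, 10% FBS) are dosed for 16 h with 0.5% DMSO final and probed with 680- and 800-dye secondary antibodies. Relative ER is calculated against vehicle and untreated wells.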

| DC50 [nM] | SMILES |
| --- | --- |
| 10 to 100 | O=C1CCC(N2Cc3cc4c(cc3C2=O)CN(CC(=O)N2CCC3(CCN(c5ccc([C@@H]6c7ccc(O)cc7CC[C@@H]6c6ccccc6)cc5)CC3)C2)C4)C(=O)N1 (mixture of isomers) [E 4, rac-3-(6-(2-(8-(4-((1R,2S)-6-hydroxy-2-phenyl-1,2,3,4-tetrahydronaphthalen-1-yl)phenyl)-2,8-diazaspiro[4.5]decan-2-yl)-2-oxoethyl)-1-oxo-3,5,6,7-tetrahydropyrrolo[3,4-f]isoindol-2(1H)-yl)piperidine-2,6-dione] |
| < 10 | C[C@@H]1Cc2c([nH]c3ccccc23)[C@@H](c2c(F)cc(N3CC4(CCN(C(=O)CN5Cc6cc7c(cc6C5)C(=O)N(C5CCC(=O)NC5=O)C7)C4)C3)cc2F)N1CC(F)F (stereo partly drawn) [E 66, 3-(6-(2-(2-(4-((1R,3R)-2-(2,2-difluoroethyl)-3-methyl-2,3,4,9-tetrahydro-1H-pyrido[3,4-b]indol-1-yl)-3,5-difluorophenyl)-2,6-diazaspiro[3.4]octan-6-yl)-2-oxoethyl)-1-oxo-3,5,6,7-tetrahydropyrrolo[3,4-f]isoindol-2(1H)-yl)piperidine-2,6-dione] |
| 10 to 100 | C[C@@H]1Cc2c([nH]c3ccccc23)[C@@H](c2c(F)cc(N3CC(C(=O)N4CC(CN5Cc6cc7c(cc6C5)C(=O)N(C5CCC(=O)NC5=O)C7=O)C4)C3)cc2F)N1CC(F)F (stereo partly drawn) [E 230, 6-((1-(1-(4-((1R,3R)-2-(2,2-difluoroethyl)-3-methyl-2,3,4,9-tetrahydro-1H-pyrido[3,4-b]indol-1-yl)-3,5-difluorophenyl)azetidine-3-carbonyl)azetidin-3-yl)methyl)-2-(2,6-dioxopiperidin-3-yl)-6,7-dihydropyrrolo[3,4-f]isoindole-1,3(2H,5H)-dione] |
| < 10 | C[C@@H]1Cc2c([nH]c3ccccc23)[C@@H](c2c(F)cc(N3CCC(N4CCN(CC(=O)N5Cc6cc7c(cc6C5)C(=O)N(C5CCC(=O)NC5=O)C7=O)CC4)CC3)cc2F)N1CC(F)F (stereo partly drawn) [E 95, 6-(2-(4-(1-(4-((1R,3R)-2-(2,2-difluoroethyl)-3-methyl-2,3,4,9-tetrahydro-1H-pyrido[3,4-b]indol-1-yl)-3,5-difluorophenyl)piperidin-4-yl)piperazin-1-yl)acetyl)-2-(2,6-dioxopiperidin-3-yl)-6,7-dihydropyrrolo[3,4-f]isoindole-1,3(2H,5H)-dione] |
| > 100 | C[C@H]1CC2(CCN(CC(=O)N3Cc4cc5c(cc4C3)C(=O)N(C3CCC(=O)NC3=O)C5=O)CC2)CN1c1ccc([C@@H]2c3ccc(O)cc3CC[C@@H]2c2ccccc2)cc1 (mixture of isomers) [E 144, Rac-2-(2,6-dioxopiperidin-3-yl)-6-(2-((S)-2-(4-((1R,2S)-6-hydroxy-2-phenyl-1,2,3,4-tetrahydronaphthalen-1-yl)phenyl)-3-methyl-2,8-diazaspiro[4.5]decan-8-yl)acetyl)-6,7-dihydropyrrolo[3,4-f]isoindole-1,3(2H,5H)-dione] |
| > 100 | O=C1CCC(N2C(=O)c3cc4c(cc3C2=O)CN(CC(=O)N2CC3(CC(Oc5ccc([C@@H]6c7ccc(O)cc7CC[C@H]6c6ccccc6)cc5)C3)C2)C4)C(=O)N1 (stereo partly drawn) [E 221, 2-(2,6-dioxopiperidin-3-yl)-6-(2-(6-(4-((1R,2R)-6-hydroxy-2-phenyl-1,2,3,4-tetrahydronaphthalen-1-yl)phenoxy)-2-azaspiro[3.3]heptan-2-yl)-2-oxoethyl)-6,7-dihydropyrrolo[3,4-f]isoindole-1,3(2H,5H)-dione] |
| < 10 | C[C@@H]1Cc2c([nH]c3ccccc23)[C@@H](c2c(F)cc(N3CCC4(CCN(C(=O)CN5Cc6cc7c(cc6C5)C(=O)N(C5CCC(=O)NC5=O)C7)C4)CC3)cc2F)N1CC(F)F (stereo partly drawn) [E 64, 3-(6-(2-(8-(4-((1R,3R)-2-(2,2-difluoroethyl)-3-methyl-2,3,4,9-tetrahydro-1H-pyrido[3,4-b]indol-1-yl)-3,5-difluorophenyl)-2,8-diazaspiro[4.5]decan-2-yl)-2-oxoethyl)-1-oxo-3,5,6,7-tetrahydropyrrolo[3,4-f]isoindol-2(1H)-yl)piperidine-2,6-dione] |
| > 100 | O=C1CCC(N2C(=O)c3cc4c(cc3C2=O)CN(C2CCN(CC3(F)CN(c5ccc([C@@H]6c7ccc(O)cc7CC[C@@H]6c6ccccc6)cc5)C3)CC2)C4)C(=O)N1 (stereo partly drawn) [E 285, 2-(2,6-dioxopiperidin-3-yl)-6-(1-((3-fluoro-1-(4-((1R,2S)-6-hydroxy-2-phenyl-1,2,3,4-tetrahydronaphthalen-1-yl)phenyl)azetidin-3-yl)methyl)piperidin-4-yl)-6,7-dihydropyrrolo[3,4-f]isoindole-1,3(2H,5H)-dione] |
| < 10 | O=C1CCC(N2C(=O)c3cc4c(cc3C2=O)CN(C(=O)C2CCN(C3CCN(c5ccc([C@@H]6c7ccc(O)cc7CC[C@@H]6c6ccc(F)cc6)cc5)CC3)CC2)C4)C(=O)N1 (mixture of isomers) [E 12, Rac-2-(2,6-dioxopiperidin-3-yl)-6-(1′-(4-((1R,2S)-2-(4-fluorophenyl)-6-hydroxy-1,2,3,4-tetrahydronaphthalen-1-yl)phenyl)-[1,4′-bipiperidine]-4-carbonyl)-6,7-dihydropyrrolo[3,4-f]isoindole-1,3(2H,5H)-dione] |
| > 100 | O=C1CCC(N2C(=O)c3cc4c(cc3C2=O)CN(C2CN(CC3CCN(c5ccc([C@@H]6c7ccc(O)cc7CC[C@@H]6c6ccccc6)cc5)CC3)C2)C4)C(=O)N1 (stereo partly drawn) [E 272, 2-(2,6-dioxopiperidin-3-yl)-6-(1-((1-(4-((1R,2S)-6-hydroxy-2-phenyl-1,2,3,4-tetrahydronaphthalen-1-yl)phenyl)piperidin-4-yl)methyl)azetidin-3-yl)-6,7-dihydropyrrolo[3,4-f]isoindole-1,3(2H,5H)-dione] |

same assay, conditions: compounds 16 hours, Table A does not say whether T47D or MCF7, read-out: Potency (DC50)

| DC50 [nM] | SMILES |
| --- | --- |
| > 100 | C[C@@H]1Cc2cc(O)ccc2[C@@H](c2c(F)cc(C3=CCC4(CC3)CCN(C(=O)CN3Cc5cc6c(cc5C3)C(=O)N(C3CCC(=O)NC3=O)C6=O)CC4)cc2F)N1CC(F)F (stereo partly drawn) [E 446, 6-(2-(9-(4-((1S,3R)-2-(2,2-difluoroethyl)-6-hydroxy-3-methyl-1,2,3,4-tetrahydroisoquinolin-1-yl)-3,5-difluorophenyl)-3-azaspiro[5.5]undec-8-en-3-yl)-2-oxoethyl)-2-(2,6-dioxopiperidin-3-yl)-6,7-dihydropyrrolo[3,4-f]isoindole-1,3(2H,5H)-dione tetrahydroisoquinolin] |
| > 100 | C[C@@H]1Cc2c([nH]c3ccccc23)[C@@H](c2ccc(C3=CCC(C(=O)N4CCC(N5Cc6cc7c(cc6C5)C(=O)N(C5CCC(=O)NC5=O)C7=O)CC4)CC3)cc2F)N1CC(C)(F)F (stereo partly drawn) [E 482, 6-(1-(4′-((1R,3R)-2-(2,2-difluoropropyl)-3-methyl-2,3,4,9-tetrahydro-1H-pyrido[3,4-b]indol-1-yl)-3′-fluoro-2,3,4,5-tetrahydro-[1,1′-biphenyl]-4-carbonyl)piperidin-4-yl)-2-(2,6-dioxopiperidin-3-yl)-6,7-dihydropyrrolo[3,4-f]isoindole-1,3(2H,5H)-dione] |
| > 100 | O=C1CCC(N2C(=O)c3cc4c(cc3C2=O)CN(CC(=O)N2CC3(CCN(c5ccc([C@H]6c7ccc(O)cc7CC[C@H]6c6ccccc6)cc5)CC3)C2)C4)C(=O)N1 (stereo partly drawn) [E 438, 2-(2,6-dioxopiperidin-3-yl)-6-(2-(7-(4-((1S,2R)-6-hydroxy-2-phenyl-1,2,3,4-tetrahydronaphthalen-1-yl)phenyl)-2,7-diazaspiro[3.5]nonan-2-yl)-2-oxoethyl)-6,7-dihydropyrrolo[3,4-f]isoindole-1,3(2H,5H)-dione] |
